For one assay, the target named is T1, human STING WT (R232).
T1 construct: purchased Cisbio 64BDSTGPEG
Kind of assay: Human STING HTRF binding assay (competitive, Cisbio 64BDSTGPEG). The note with it: 6His tagged human STING WT R232, competition with STING ligand-d2. Here is the method:
Binders to human STING WT (R232) were identified using a competitive HTRF assay format (Cisbio 64BDSTGPEG), which uses d2-labeled STING ligand, a 6His tagged human STING protein, and an anti 6His Cryptate-labeled antibody. Compounds compete with the STING ligand-d2 and thereby prevents FRET from occurring, which can be measured by an EnVision™ reader (PerkinElmer).
Assay method: Compounds were delivered as 10 mM DMSO solution, serially diluted by an Agilent Bravo Workstation and transferred to the 384 well assay plate (Perkin Elmer #6005359) using a Cybiwell dispenser. Typically, 8 concentrations were used with the highest concentration at 10 μM or 1 μM in the final assay volume followed by ^˜1:5 dilution steps. DMSO concentration was set to 1% in the final assay volume. The 384 well assay plate contained 20 test compounds and DMSO in column 23 and 24. A cGAMP standard dilution row was prepared according to the manufacturer and transferred to each assay plate. After transfer of compound solution or dilution buffer for negative (high) and positive (low) controls, 5 μl of the human STING protein (cyclic binding domain (residues 138-379) of the WT R232 human version, fused to a 6 His tag at the Nter part; 1:50 dilution in detection buffer) were dispensed to all wells except of the positive control, which received detection buffer only. Plates were the centrifuged for 20 sec at 1000 rpm. After that, 10 μl of Anti-6His-Cryptate antibody/Sting ligand-d2 mix was added to all wells using a Multidrop combi dispenser, followed by another 20 sec/1000 rpm centrifugation step. After an incubation of the plates for 180 min at room temperature, […] at […] (HTRF ratio) was measured using an Envison Reader (PerkinElmer)
Data evaluation and calculation: For data evaluation and calculation, HTRF ratios were calibrated using the cGAMP standard curve. After that, the measurement of the low control was set as 0% control and the measurement of the high control was set as 100% control. The IC50 values were calculated using the standard 4 parameter logistic regression formula. Calculation: [y=(a−d)/(1+(x/c)^b)+d], a=low value, d=high value; x=conc M; c=IC50 M; b=slope;

Assay [1] relates to T2, wild-type (GRR) human STING cGAMP binding domain (residues 155-341).
T2 construct: His-TEV-hSTING (WT); TEV protease cleavage site (N); made in house; host or cells: E. coli BL21 DE3
Kind of assay: Differential Scanning Fluorimetry (DSF), stability of STING protein against thermal denaturation. The note with it: 100 uM compound, 3 uM target protein. As to the method: Dye fluorescence is quenched in aqueous environment and increases upon association of the dye with the hydrophobic parts of the unfolding protein. […] The inflection point of the curve represents the “melting” temperature of the protein (Tm) which is calculated numerically using the Boltzmann equation.
Method: The thermal stability of the STING protein was measured using a specific expression construct of the cGAMP binding domain of wild-type (GRR) human STING comprising residues 155-341 and a N-terminal 8x His-tag in assay buffer containing 20 mM Tris, 150 mM NaCl at pH7.5.
The assay uses Hard-Shell®PCR Plates 384-Well CLR/WHT (Catalog #HSP3805, BIO-RAD), Microseal®‘B’ Adhesive Seals for PCR Plates (Catalog #MSB-1001, BIO-RAD) and was run on a CFX384 Real-Time System (Bio-Rad).
A DMSO stock solution of SYPRO orange (SIGMA S5692-500UL) was prepared.
Compound stock solutions (10 mM in DMSO) were diluted 1:2 in DMSO to an intermediate compound concentration of 5 mM and then further diluted 1:40 in assay buffer resulting in a compound concentration of 125 μM and 2.5% DMSO.
Fluorescent dye stock solution (5000×SYPRO Orange) was then mixed with target protein and buffer to a concentration of 15 uM Protein and 25×SYPRO Orange. 2 ul of this protein-dye-mixture was added to 8 ul compound solution. Final volume was 10 uL. 3-6 well positions were used as negative control (protein with 2% DMSO). The plates were prepared for duplicate measurement and centrifuged for 2 min at 1000 g. In the measurement, 160 cycles of 0.5° C. were used (temperature ramp 15 s/cycle, 15° C. to 95° C.).
Final Assay concentrations for compound characterization were as follows:
100 uM compound, 3 uM target protein, 5×SYPRO Orange, 2% DMSO in 10 ul. All dispensing steps were performed using a HamiltonStar pipetting robot (Hamilton).
Dissociation curves were processed in Bio-Rad CFX Manager. Peak type was set to “negative”.
Compound codes for screen were assigned in the plate layout.
Two replicates of TM measurements were averaged, and the standard deviation was calculated. In cases of SD>1.5° C. the measurement was repeated.
The melting point (Tm) obtained for STING protein alone was subtracted from T obtained for protein incubated with ligand to generate ΔTm values.
Protein production and purification: The protein used for the biophysical experiments was a recombinant human STING protein comprising its cytosolic ectodomain. A codon optimized DNA sequence (for expression in Escherichia coli) encoding amino acid residues 155 to 341 (Swiss Prot Q86WV6) of human STING (WT) was synthesized by GeneArt (Regensburg, Germany) and inserted into a pET17b E. coli expression vector. The protein construct encodes an N-terminal 8× His-tag followed by tobacco etch virus protease (TEV) cleavage site and the above STING gene sequence. The resulting protein sequence for the used STING variant is listed below:
For expression of recombinant human STING above construct was transformed into E. coli BL21 DE3 strain and grown in shake flasks in LB-medium at 37° C. Expression was induced by addition of isopropyl β-D-1-thiogalactopyranoside to a final concentration of 1 mM and cultures shaken overnight. Cell pellets were centrifuged and stored at −70° C. until further use. Protein was purified by cell thawing in lysis buffer (20 mM TRIS-HCl, pH 8, 300 mM NaCl, 2 mM mercaptoethanol, 20 mM imidazole, Complete Protease Inhibitor (Roche) and DNase (Roche)), followed by metal affinity purification using Ni-NTA resins and elution buffer consisting of 20 mM TRIS-HCl, pH 8, 300 mM NaCl, 2 mM mercaptoethanol, 300 mM imidazole and size exclusion chromatography in running buffer (20 mM TRIS-HCl, pH 8, 100 mM NaCl, 2 mM DTT). The peak fraction was collected and concentrated to 2.5 mg/mL.
(DSF heats the sample and reads unfolding from a dye or from intrinsic fluorescence.)

This is an account of results in US20250333398A1, “MONOARYL AND HETARYL SUBSTITUTED INDAZOLES AND BENZIMIDAZOLES AS STING ANTAGONISTS AND THE USE THEREOF AS MEDICAMENT” (Boehringer Ingelheim International GmbH, priority 2024, published 2025).

As usually defined, the IC50 is the concentration that gives 50% inhibition.

For `COc1nn(C2CC2)cc1-n1cc2c(-c3nc(-c4ccc(C(N)=O)cc4OC(F)(F)F)n(C)c3C3CC3)cccc2n1` [Example 16, 4-{5-cyclopropyl-4-[2-(1-cyclopropyl-3-methoxy-1H-pyrazol-4-yl)-2H-indazol-4-yl]-1-methyl-1H-imidazol-2-yl}-3-(trifluoromethoxy)benzamide], at human STING WT (R232), the IC50 is 13.8 nM. Also, the “DSF ΔTm (K)” value in assay [1] is given as 32 K.

`CCP(=O)(CC)c1ccc(-c2nc(-c3cccc4nn(-c5cc(C(F)(F)F)n(C)n5)cc34)c(C3CC3)n2C)c(OC(F)(F)F)c1` [Example 17, 4-{5-cyclopropyl-2-[4-(diethylphosphoryl)-2-(trifluoromethoxy)phenyl]-1-methyl-1H-imidazol-4-yl}-2-[1-methyl-5-(trifluoromethyl)-1H-pyrazol-3-yl]-2H-indazole]: on human STING WT (R232), the IC50 turned out to be 48.1 nM. Besides, the “DSF ΔTm (K)” value in assay [1] came out at 29 K.

For `CC[P@](C)(=O)c1ccc(-c2nc(-c3cccc4[nH]c(-c5cc(C(F)(F)F)n(C)n5)nc34)c(C3CC3)n2C)c(OC(F)(F)F)c1` [Example 18, 4-(5-cyclopropyl-2-{4-[(S)-ethyl(methyl)phosphoryl]-2-(trifluoromethoxy)phenyl}-1-methyl-1H-imidazol-4-yl)-2-[1-methyl-5-(trifluoromethyl)-1H-pyrazol-3-yl]-1H-1,3-benzodiazole], on human STING WT (R232), the half-inhibitory concentration (IC50) is 26.5 nM. Further, the “DSF ΔTm (K)” value in assay [1] is 34 K.

The molecule `CC[P@](C)(=O)c1ccc(-c2nc(-c3cccc4nn(-c5cc(C6CC6)n(C)n5)cc34)c(C3CC3)n2C)c(OC(F)(F)F)c1` [Example 19, 2-(5-cyclopropyl-1-methyl-1H-pyrazol-3-yl)-4-(5-cyclopropyl-2-{4-[(S)-ethyl(methyl)phosphoryl]-2-(trifluoromethoxy)phenyl}-1-methyl-1H-imidazol-4-yl)-2H-indazole] had a 50% inhibitory concentration (IC50) on human STING WT (R232) of 18 nM. Besides, the “DSF ΔTm (K)” value in assay [1] came to 28 K.

At human STING WT (R232), `Cn1nc(-n2cc3c(-c4nc(-c5ccc(P(C)(C)=O)cc5OC(F)(F)F)n(C)c4C4CC4)cccc3n2)cc1C(F)(F)F` [Example 20, 4-{5-cyclopropyl-2-[4-(dimethylphosphoryl)-2-(trifluoromethoxy)phenyl]-1-methyl-1H-imidazol-4-yl}-2-[1-methyl-5-(trifluoromethyl)-1H-pyrazol-3-yl]-2H-indazole] gave a half-inhibitory concentration (IC50) of 49.1 nM. The “DSF ΔTm (K)” value in assay [1] is on record as 30 K.
